Data as given in ChEMBL document CHEMBL1201862, “PubChem BioAssay data set” (2004).
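These data come from cells grown in 96-well plates and exposed to compound for 48 hours at five concentrations. GI50 marks 50% less growth.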 Activity calls are given as the source filed them. Rule as the data show it: active = GI50 up to about 1.1 µM and inactive = higher.

Tests used:
Assay in all cases: NCI tumour cell line growth inhibition, 48 h
A498 = system: A498
IGROV-1 = system: IGROV-1
MOLT-4 = system: MOLT-4
Hs-578T = system: Hs-578T
MDA-N = system: MDA-N
Malme-3M = system: Malme-3M
MCF7 = system: MCF7
K562 = system: K562
U-251 = system: U-251
SN12C = system: SN12C
SNB-75 = system: SNB-75
NCI-H226 = system: NCI-H226
OVCAR-4 = system: OVCAR-4
BT-549 = system: BT-549
MDA-MB-231 = system: MDA-MB-231
SK-MEL-28 = system: SK-MEL-28
OVCAR-8 = system: OVCAR-8
HCT-15 = system: HCT-15
MDA-MB-435 = system: MDA-MB-435
T47D = system: T47D
NCI-H522 = system: NCI-H522
HL-60 = system: HL-60
A549 = system: A549
EKVX = system: EKVX
CAKI-1 = system: CAKI-1
OVCAR-3 = system: OVCAR-3
SK-OV-3 = system: SK-OV-3
PC-3 = system: PC-3
DU-145 = system: DU-145
M14 = system: M14
HT-29 = system: HT-29
OVCAR-5 = system: OVCAR-5
HCT-116 = system: HCT-116
NCI-H460 = system: NCI-H460
SNB-19 = system: SNB-19
RPMI-8226 = system: RPMI-8226
ACHN = system: ACHN
NCI/ADR-RES = system: NCI/ADR-RES
UACC-62 = system: UACC-62
HOP-92 = system: HOP-92
SF-295 = system: SF-295
CCRF-CEM = system: CCRF-CEM
KM12 = system: KM12
SK-MEL-5 = system: SK-MEL-5
786-0 = system: 786-0
SK-MEL-2 = system: SK-MEL-2
NCI-H23 = system: NCI-H23
UACC-257 = system: UACC-257
HOP-62 = system: HOP-62
RXF 393 = system: RXF 393
SF-268 = system: SF-268
SR = system: SR
UO-31 = system: UO-31
COLO 205 = system: COLO 205
SW-620 = system: SW-620
SF-539 = system: SF-539
HCC 2998 = system: HCC 2998
TK-10 = system: TK-10
LOX IMVI = system: LOX IMVI

CCC12CC(c3ccccc3)C(C(=O)N1)C(=O)N2 (stereo unspecified)
GI50 (A498): > 100 µM (inactive) | GI50 (IGROV-1): > 100 µM (inactive) | GI50 (MOLT-4): > 100 µM (inactive) | GI50 (Hs-578T): > 100 µM (inactive) | GI50 (MDA-N): > 100 µM (inactive) | GI50 (Malme-3M): > 100 µM (inactive) | GI50 (MCF7): > 100 µM (inactive) | GI50 (K562): > 100 µM (inactive) | GI50 (U-251): > 100 µM (inactive) | GI50 (SN12C): > 100 µM (inactive) | GI50 (SNB-75): 65.3 µM (inactive) | GI50 (NCI-H226): > 100 µM (inactive) | GI50 (OVCAR-4): > 100 µM (inactive) | GI50 (BT-549): > 100 µM (inactive) | GI50 (MDA-MB-231): > 100 µM (inactive) | GI50 (SK-MEL-28): > 100 µM (inactive) | GI50 (OVCAR-8): > 100 µM (inactive) | GI50 (HCT-15): > 100 µM | GI50 (MDA-MB-435): > 100 µM (inactive) | GI50 (T47D): > 100 µM (inactive) | GI50 (NCI-H522): > 100 µM (inactive) | GI50 (HL-60): > 100 µM (inactive) | GI50 (A549): > 100 µM (inactive) | GI50 (EKVX): > 100 µM (inactive) | GI50 (CAKI-1): > 100 µM (inactive) | GI50 (OVCAR-3): > 100 µM (inactive) | GI50 (SK-OV-3): > 100 µM (inactive) | GI50 (PC-3): > 100 µM (inactive) | GI50 (DU-145): > 100 µM (inactive) | GI50 (M14): > 100 µM (inactive) | GI50 (HT-29): > 100 µM (inactive) | GI50 (OVCAR-5): > 100 µM (inactive) | GI50 (HCT-116): > 100 µM (inactive) | GI50 (NCI-H460): > 100 µM (inactive) | GI50 (SNB-19): > 100 µM (inactive) | GI50 (RPMI-8226): > 100 µM (inactive) | GI50 (ACHN): > 100 µM (inactive) | GI50 (NCI/ADR-RES): > 100 µM (inactive) | GI50 (UACC-62): > 100 µM (inactive) | GI50 (HOP-92): > 100 µM (inactive) | GI50 (SF-295): > 100 µM (inactive) | GI50 (CCRF-CEM): > 100 µM (inactive) | GI50 (KM12): > 100 µM (inactive) | GI50 (SK-MEL-5): > 100 µM (inactive) | GI50 (786-0): > 100 µM (inactive) | GI50 (SK-MEL-2): > 100 µM (inactive) | GI50 (NCI-H23): > 100 µM (inactive) | GI50 (UACC-257): > 100 µM (inactive) | GI50 (HOP-62): > 100 µM (inactive) | GI50 (RXF 393): > 100 µM (inactive) | GI50 (SF-268): > 100 µM (inactive) | GI50 (SR): > 100 µM (inactive) | GI50 (UO-31): > 100 µM (inactive) | GI50 (COLO 205): > 100 µM (inactive) | GI50 (SW-620): > 100 µM (inactive) | GI50 (SF-539): > 100 µM (inactive)

COc1cc(/C=C/C(=O)OCC23CC[C@@]4(C(=O)O)CCC(C)[C@H](C)C4C2=CCC2[C@@]4(C)CC[C@H](O)C(C)(C)C4CC[C@]23C)ccc1O (stereo partly specified)
GI50 (A498): 32.4 µM (inactive) | GI50 (IGROV-1): 14.5 µM (inactive) | GI50 (MOLT-4): 6.68 µM (inactive) | GI50 (Hs-578T): 4.66 µM (inactive) | GI50 (MDA-N): 24.3 µM (inactive) | GI50 (Malme-3M): 11.9 µM (inactive) | GI50 (MCF7): 10.7 µM (inactive) | GI50 (K562): 27 µM (inactive) | GI50 (U-251): 27.9 µM (inactive) | GI50 (HCC 2998): 54.1 µM (inactive) | GI50 (SN12C): 8.09 µM (inactive) | GI50 (NCI-H226): 27.5 µM (inactive) | GI50 (OVCAR-4): 17.5 µM (inactive) | GI50 (BT-549): 19.5 µM (inactive) | GI50 (MDA-MB-231): 46.3 µM (inactive) | GI50 (SK-MEL-28): 37.8 µM (inactive) | GI50 (OVCAR-8): 15.9 µM (inactive) | GI50 (HCT-15): 21.6 µM | GI50 (MDA-MB-435): 24.5 µM (inactive) | GI50 (T47D): 48.5 µM (inactive) | GI50 (NCI-H522): 3.98 µM (inactive) | GI50 (HL-60): 23.4 µM (inactive) | GI50 (A549): 7.76 µM (inactive) | GI50 (EKVX): 15.5 µM (inactive) | GI50 (CAKI-1): 44.4 µM (inactive) | GI50 (OVCAR-3): 3.88 µM (inactive) | GI50 (SK-OV-3): 29 µM (inactive) | GI50 (PC-3): 16.3 µM (inactive) | GI50 (DU-145): 10.2 µM (inactive) | GI50 (M14): 23.2 µM (inactive) | GI50 (HT-29): 20.4 µM (inactive) | GI50 (OVCAR-5): 21.7 µM (inactive) | GI50 (HCT-116): 17.5 µM (inactive) | GI50 (NCI-H460): 11.4 µM (inactive) | GI50 (SNB-19): 31.2 µM (inactive) | GI50 (TK-10): 2.97 µM (inactive) | GI50 (LOX IMVI): 15.6 µM (inactive) | GI50 (ACHN): 3.05 µM (inactive) | GI50 (NCI/ADR-RES): 15.6 µM (inactive) | GI50 (UACC-62): 19.6 µM (inactive) | GI50 (SF-295): 23.8 µM (inactive) | GI50 (CCRF-CEM): 4.59 µM (inactive) | GI50 (KM12): 29.9 µM (inactive) | GI50 (SK-MEL-5): 16.1 µM (inactive) | GI50 (786-0): 11 µM (inactive) | GI50 (SK-MEL-2): 22.5 µM (inactive) | GI50 (NCI-H23): 3.89 µM (inactive) | GI50 (UACC-257): 17.7 µM (inactive) | GI50 (HOP-62): 13.4 µM (inactive) | GI50 (RXF 393): 12.7 µM (inactive) | GI50 (SF-268): 4.66 µM (inactive) | GI50 (SR): 19.4 µM (inactive) | GI50 (COLO 205): > 10 µM (inactive) | GI50 (SW-620): 37.7 µM (inactive) | GI50 (SF-539): 14.7 µM (inactive)
